Data on 16 compounds can be found in patent US10174005B2, “Fused pyrimidines as inhibitors of p97 complex” (Cleave Biosciences, Inc., priority 2014, dated 2019).

Assay [1] deals with K48-Ub (lysine-48 chain linkage of poly-ubiquitin) in A549 cells. The assay can be described thus: A549 K48-Ub accumulation, immunofluorescence high-content imaging. It is filed as cell-based. The note with it: Homo sapiens, 6 hr incubation. The protocol:
Image-analysis is used to generate quantitative data from these assays that can be fit to a four-parameter sigmoid curve to derive IC50 values. Substrates of the ubiquitin-proteasome system, such as p53, are monitored after tumor cell lines are incubated with compounds for several hours. Accumulation of these proteins indicates an inhibition of proteasome-mediated degradation. Accumulation of lysine-48 chain linkage of poly-ubiquitin is also monitored by immunofluorescence as an indicator of ubiquitin-proteasome system inhibition. Both LC3 and SQSTM1 are mediators of autophagy. The localization and amounts of these proteins are monitored by immunofluorescence and report on the activity and inhibition of autophagy in response to p97 inhibition.
(§1) Cell Plating: • Seed cells ˜16 hrs prior to compound treatment • Plate 25 μL of A549 cells in every well of 384-well plate using multidrop. • Two (2) black plates for IF at 2500 cells/well • Let plate sit at room temp for 10-15 minutes prior to putting in incubator to • allow cells to stick in middle of plate. • One (1) white plate for viability at 500 cells/well.
(§2) Day 2 Treatment of Cultured Cells with Test Compounds • Treat Cells: • Serial dilute compounds with a 10 point 2-fold serial dilution in DMSO to make 250× stock compound solution • Dilute compounds 1:125 in cell culture media to make a 2× solution Add • 25 μl of dilution compounds to cell plates in well duplicates Put cells back in incubator (6 hr incubation for black plates, 72 hr incubation for white plates).
Fix/Stain Black Plates: • Incubate cells in black plates with compound at 37 deg C. for 6 hrs. add 15 μL of 16% Paraformaldehyde (PFA) directly into media of each well, incubate at room temp for 5 min, flick plate and wash in 50 μL of PBS block in 50 μL of Blocking Buffer for 30 minutes (can go up to several hours) • Blocking buffer: 1×PBS, 1% BSA, 0.3% Triton-X 100, Hoechst (1:10,000) incubate in 25 μL of primary antibody in blocking buffer at 4 deg C. over night
Secondary Antibodies: • AlexaFluor488 Goat anti-Rabbit 1:2,000 (Life Tech A11008) • AlexaFluor555 Goat anti-Mouse 1:2.000 (Life Tech A21422)
Day 3/4 • Black Plate Staining (cont): • wash black plates 3× in 50 μL PBS (˜5 min each) incubate in 25 μl of secondary antibody (1:2,000) in blocking buffer for 1-2 hrs at room temp (alexafluor488-anti-Rabbit/alexafluor555-anti-Mouse) • wash 4× in 50 μL PBS (˜5 min each) • leave plates in PBS for imaging • clean bottom of plates with 70% EtOH
Imaging: • Image plates in high content microscope with 405 nm, 488 nm and 555 nm filters
Data Analysis: • Nuclear counts and cellular intensities of each markers are measured using Hoechst as a nuclear marker with an automated image analysis protocol using Matlab software (Math Works)

The test system of a further assay is A549 cells. Description: Cultured cancer cell viability assay (cell titer glo, CTG) in A549 cells. The following applies: Homo sapiens; A549 cells, 72 hr incubation, cell titer glo; read-out: A549 CTG IC50. The assay is classed as cell-based.
Source text: Anti-tumor effects are monitored in cultured cancer cells after several days of compound treatment. The cell titer glo assay (Promega) measures the amount of ATP present as a proxy for cellular viability. Cellular counting is done using high-content microscopy followed by image analysis. A hanging drop 3D-culture system (3D Biomatrix) is used followed by cell titer glo to measure growth in a tumor-like environment.
The cellular assay provides information about the anti-neoplastic activity of the compounds of the invention. The compounds are tested against cultured cancer cells to determine whether or not the compounds of the invention are capable of intersecting with cancer cells to minimize or eliminate such cells. The assay involves establishing colonies of such cells and then treating them with the test compound under specified conditions and analysis regima to determine results.
as §1, §2
Viability Assay: • Thaw an aliquot of frozen cell titer glo (Promega G7572) at room temperature. • Add 45 mL of NaCl/PBS solution to 5 ml of cell titer glo (10×). • Remove white plates from incubator, leave at room temp for 30 minutes. • Add 25 μl of diluted cell titer glo to each well. • Shake plate for >1 minute. • Incubate plate for >5 minutes to stabilize luminescence. • Luminescence is stable for up to 3 hours. • Read luminescence on plate reader
In general terms: Cellular ATP, detected with luciferase, serves as a proxy for viable cell number.

The target in a further assay is p97 (Homo sapiens, UniProt P55072). The assay can be described thus: P97 ATPase biochemical assay (ADP Glo). The following applies: 20 nM p97, 20 μM ATP, 37° C. for 15 minutes. On the procedure:
The ATPase assay is performed according the following protocol: Purified enzyme (20 nM p97), substrate (20 μM ATP) and a dose titration of compounds are mixed in buffer (50 mM TRIS pH 7.5, 20 mM MgCl2, 0.02% TX-100, 1 mM DTT, 0.2% (v/v) glycerol) and incubated at 37° C. for 15 minutes. The reaction is terminated and the level of product generated is measured using the ADP Glo Assay Kit (Promega, Madison Wis.). Plotting product generated versus compound concentration and using a four-parameter fit model generates an IC50 value for each compounds.
The p97 assay is an initial screening assay used to determine inhibitory activity of the fused pyrimidine compounds of the invention against the p97 complex. As discussed above, inhibition of activity of the p97 proteosome complex can enable apoptosis and cause elimination of neoplastic cells (cancer cells). The method follows that of Christianson in Nat. Cell Biol., (2011) 14:93.
Assay Buffer is a mixture of 50 mM TRIS pH 7.5, 20 mM MgCl2, 0.02% TX-100, 1 mM DTT and 0.2% (v/v) Glycerol. The well plate is Platetype: Corning 3674, 384w plate. The identification kit is an ADP glo kit (Promega): stop buffer, detection reagent.
Serial dilute compound in DMSO in a 1:3.33-fold 10 point serial dilution.
in each well of 384w plate add the following reagents:
0.5 μL compound serial diluted in DMSO (Final Conc. 10%)
2 μL ATP (Final Conc.=20 uM, diluted in assay buffer)
2.5 μL p97 (Final Conc.=20 nM, diluted in assay buffer)
Incubate at 37 deg C. for 15 min.
Add 5 μL of stop buffer, incubate at RT for 40 min.
Add 10 μL of detection reagent, incubate at RT for 30 min.
Read luminescence on Envision plate reader.
Upon obtaining the data from the luminescence reading, the data may be analyzed as follows:
Normalize luminescence data using no enzyme (full inhibition) and no compound (no inhibition) controls. Plot normalized luminescence data against log-transformed concentration values and fit to a sigmoidal curve to determine IC50 values (done in Collaborative Drug Discovery software).
A general note: ADP-Glo first removes unused ATP, then detects ADP through luciferase.

p97, sequence (P55072 whole entry): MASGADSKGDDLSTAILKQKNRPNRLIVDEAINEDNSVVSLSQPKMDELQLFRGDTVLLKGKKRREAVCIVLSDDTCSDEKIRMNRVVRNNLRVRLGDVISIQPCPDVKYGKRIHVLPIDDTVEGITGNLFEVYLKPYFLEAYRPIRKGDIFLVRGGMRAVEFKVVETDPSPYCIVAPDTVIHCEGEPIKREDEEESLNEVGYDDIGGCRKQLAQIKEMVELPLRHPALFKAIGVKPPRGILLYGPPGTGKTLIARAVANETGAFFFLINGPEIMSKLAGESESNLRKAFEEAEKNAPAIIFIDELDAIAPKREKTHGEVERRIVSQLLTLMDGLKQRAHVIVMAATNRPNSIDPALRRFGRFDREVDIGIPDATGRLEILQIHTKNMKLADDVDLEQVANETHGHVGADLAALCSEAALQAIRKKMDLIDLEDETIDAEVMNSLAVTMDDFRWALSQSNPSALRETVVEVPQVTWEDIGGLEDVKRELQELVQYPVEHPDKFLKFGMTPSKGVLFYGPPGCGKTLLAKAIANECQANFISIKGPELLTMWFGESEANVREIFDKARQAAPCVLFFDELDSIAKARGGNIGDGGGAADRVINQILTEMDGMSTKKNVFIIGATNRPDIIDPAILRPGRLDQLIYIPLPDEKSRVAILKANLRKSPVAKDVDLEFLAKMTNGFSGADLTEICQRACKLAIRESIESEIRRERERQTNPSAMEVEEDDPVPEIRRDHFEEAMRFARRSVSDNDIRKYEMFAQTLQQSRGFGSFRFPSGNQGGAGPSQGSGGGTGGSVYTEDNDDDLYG

With `Cc1cc2c(C(N)=O)cccc2n1-c1nc2c(c(NCc3ccccc3)n1)CCCN2` [FF07, 1-(4-(benzylamino)-5,6,7,8-tetrahydropyrido[2,3-d]pyrimidin-2-yl)-2-methyl-1H-indole-4-carboxamide], the IC50 in assay [1] was less than 1 µM; with A549 cells, less than 1 µM; against p97, less than 0.03 µM.
`Cc1cc2c(C(N)=O)cccc2n1-c1nc2c(c(NCc3ccccc3)n1)N(C)CCC2` [FF21, 1-(4-(benzylamino)-5-methyl-5,6,7,8-tetrahydropyrido[3,2-d]pyrimidin-2-yl)-2-methyl-1H-indole-4-carboxamide]: the IC50 was less than 1 µM in assay [1], less than 1 µM in the assay with A549 cells and less than 0.03 µM on p97.
With `Cc1oc2c(C(N)=O)cccc2c1-c1nc2c(c(NCc3ccccc3)n1)CCCC2` [FF35, 3-(4-(benzylamino)-5,6,7,8-tetrahydroquinazolin-2-yl)-2-methylbenzofuran-7-carboxamide], the IC50 was less than 3 µM in assay [1], less than 3 µM in the assay on A549 cells and less than 0.03 µM at p97.
For the compound `COc1nc2c(C(N)=O)cccc2n1-c1nc(NCc2ccccc2)c2c(n1)OCCC2` [FF24, 1-(4-(benzylamino)-6,7-dihydro-5H-pyrano[2,3-d]pyrimidin-2-yl)-2-methoxy-1H-benzo[d]imidazole-4-carboxamide], the figures for the IC50 (in assay [1]; in the assay with A549 cells; against p97) were less than 3 µM, less than 3 µM and less than 0.03 µM, respectively.
`Cc1cc2c(C(N)=O)cccc2n1-c1nc2c(c(NCc3cccc(F)c3)n1)N(C)CCC2` [FF12, 1-(4-((3-fluorobenzyl)amino)-5-methyl-5,6,7,8-tetrahydropyrido[3,2-d]pyrimidin-2-yl)-2-methyl-1H-indole-4-carboxamide]: the IC50 is less than 1 µM in assay [1], less than 1 µM with A549 cells and less than 0.03 µM against p97.
Take `Cc1cc2c(C(N)=O)cccc2n1-c1nc2c(c(NCc3ccccc3)n1)NCCC2` [FF34, 1-(4-(benzylamino)-5,6,7,8-tetrahydropyrido[3,2-d]pyrimidin-2-yl)-2-methyl-1H-indole-4-carboxamide]: the results for the IC50 (in assay [1]; in the assay with A549 cells; against p97) were less than 1 µM, less than 1 µM and less than 0.03 µM, respectively.
With `NCc1cc2c(C(N)=O)cccc2n1-c1nc(NCc2ccccc2)c2c(n1)OCCC2` [FF32, 2-(aminomethyl)-1-(4-(benzylamino)-6,7-dihydro-5H-pyrano[2,3-d]pyrimidin-2-yl)-1H-indole-4-carboxamide], the IC50 was less than 10 µM in assay [1], less than 10 µM in the assay on A549 cells and less than 0.1 µM against p97.
Regarding `NC(=O)c1cccc2c1cnn2-c1nc2c(c(NCc3ccccc3)n1)CCCC2` [FF03, 1-(4-(benzylamino)-5,6,7,8-tetrahydroquinazolin-2-yl)-1H-indazole-4-carboxamide], the IC50 in assay [1] was less than 1 µM; in the assay with A549 cells, less than 1 µM; against p97, less than 0.03 µM.
Take `Cc1cc2c(C(N)=O)cccc2n1-c1nc(NCc2ccccc2)c2c(n1)OCC2` [FF08, 1-(4-(benzylamino)-5,6-dihydrofuro[2,3-d]pyrimidin-2-yl)-2-methyl-1H-indole-4-carboxamide]: the IC50 is less than 3 µM in assay [1], less than 3 µM in the assay with A549 cells and less than 0.1 µM against p97.
In the case of `COc1nc2c(C(N)=O)cccc2n1-c1nc2c(c(NCc3ccccc3)n1)CCCN2` [FF23, 1-(4-(benzylamino)-5,6,7,8-tetrahydropyrido[2,3-d]pyrimidin-2-yl)-2-methoxy-1H-benzo[d]imidazole-4-carboxamide], the IC50 in assay [1] is less than 3 µM; in the assay on A549 cells, less than 3 µM; against p97 it was less than 0.03 µM.
With `Cc1cc2c(C(N)=O)cccc2n1-c1nc(NCc2cccc(F)c2)c2c(n1)OCCC2` [FF09, 1-(4-((3-fluorobenzyl)amino)-6,7-dihydro-5H-pyrano[2,3-d]pyrimidin-2-yl)-2-methyl-1H-indole-4-carboxamide], the IC50 in assay [1] was less than 1 µM; in the assay with A549 cells, less than 1 µM; against p97 it was less than 0.03 µM.
In the case of `Cc1[nH]c2c(C(N)=O)cccc2c1-c1nc2c(c(NCc3ccccc3)n1)CCCC2` [FF05, 3-(4-(benzylamino)-5,6,7,8-tetrahydroquinazolin-2-yl)-2-methyl-1H-indole-7-carboxamide], the IC50 in assay [1] is less than 3 µM; in the assay with A549 cells it was less than 3 µM; on p97, less than 0.03 µM.
For `Cc1cc2c(C(N)=O)cccc2n1-c1nc(NCc2ccccc2)c2c(n1)N(C)CCC2` [FF29, 1-(4-(benzylamino)-8-methyl-5,6,7,8-tetrahydropyrido[2,3-d]pyrimidin-2-yl)-2-methyl-1H-indole-4-carboxamide], the IC50 in assay [1] was less than 3 µM; in the assay with A549 cells, less than 3 µM; at p97 it was less than 0.03 µM.
Take `Cc1cc2c(C(N)=O)cccc2n1-c1nc2c(c(NCc3ccccc3)n1)CCCCC2` [FF18, 1-(4-(benzylamino)-6,7,8,9-tetrahydro-5H-cyclohepta[d]pyrimidin-2-yl)-2-methyl-1H-indole-4-carboxamide]: the figures for the IC50 (in assay [1]; with A549 cells; on p97) were less than 3 µM, less than 1 µM and less than 0.03 µM, respectively.
With `Cc1cc2c(C(N)=O)cccc2n1-c1nc(NCc2ccccc2)c2c(n1)C(C)CNC2` (stereo not drawn) [FF19, 1-(4-(benzylamino)-8-methyl-5,6,7,8-tetrahydropyrido[4,3-d]pyrimidin-2-yl)-2-methyl-1H-indole-4-carboxamide], the results for the IC50 (in assay [1]; in the assay with A549 cells; at p97) were less than 1 µM, less than 3 µM and less than 0.1 µM, respectively.
The corresponding values for `Cc1cc2c(C(N)=O)cccc2n1-c1nc2c(c(NCc3cccc(F)c3)n1)CCCN2` [FF26, 1-(4-((3-fluorobenzyl)amino)-5,6,7,8-tetrahydropyrido[2,3-d]pyrimidin-2-yl)-2-methyl-1H-indole-4-carboxamide] are less than 3 µM, less than 3 µM and less than 0.03 µM.

Usually IC50 stands for the concentration that inhibits the measured activity by half.
